Numbers after ± are expanded uncertainties.
Assay: xn = mol fraction of the nth substance listed
Conditions: Liquid; for speed of sound: Pulse-echo method

CCCCCCCCCCCC [dodecane] + CCCCCCC
Conditions	mass density [kg/m3]	speed of sound [m/s]
303.14 K, 30390 kPa, x2 = 0	–	1423.8 ± 2.4
303.14 K, 30390 kPa, x2 = 0.1014	–	1415.2 ± 2.4
303.14 K, 30390 kPa, x2 = 0.4999	–	1376.6 ± 2.4
303.14 K, 30390 kPa, x2 = 0.5003	–	1376.5 ± 2.4
303.14 K, 45590 kPa, x2 = 0	–	1491.4 ± 2.4
303.14 K, 45590 kPa, x2 = 0.1014	–	1483.5 ± 2.4
303.14 K, 45590 kPa, x2 = 0.3007	–	1466.1 ± 2.4
303.14 K, 45590 kPa, x2 = 0.4999	–	1448 ± 2.4
303.14 K, 45590 kPa, x2 = 0.5003	–	1448.1 ± 2.4
303.14 K, 60790 kPa, x2 = 0	–	1553.1 ± 2.5
303.14 K, 60790 kPa, x2 = 0.1014	–	1545.7 ± 2.5
303.14 K, 60790 kPa, x2 = 0.4999	–	1512.9 ± 2.5
303.14 K, 60790 kPa, x2 = 0.5003	–	1513 ± 2.5
303.14 K, 60790 kPa, x2 = 0.7007	–	1491.3 ± 2.5
303.14 K, 75990 kPa, x2 = 0	–	1610.9 ± 2.5
303.14 K, 75990 kPa, x2 = 0.1014	–	1603.8 ± 2.5
303.14 K, 75990 kPa, x2 = 0.4999	–	1572.4 ± 2.5
303.14 K, 75990 kPa, x2 = 0.5003	–	1572.6 ± 2.5
303.14 K, 75990 kPa, x2 = 0.7007	–	1552 ± 2.5
303.14 K, 91180 kPa, x2 = 0	–	1664.1 ± 2.5
303.14 K, 91180 kPa, x2 = 0.1014	–	1657.4 ± 2.5
303.14 K, 91180 kPa, x2 = 0.3007	–	1642.8 ± 2.5
303.14 K, 91180 kPa, x2 = 0.4999	–	1627.9 ± 2.6
303.14 K, 91180 kPa, x2 = 0.5003	–	1628.3 ± 2.6
303.14 K, 91180 kPa, x2 = 0.7007	–	1609.1 ± 2.6
303.14 K, 101320 kPa, x2 = 0	–	1697.4 ± 2.6
303.14 K, 101320 kPa, x2 = 0.3007	–	1677 ± 2.6
303.14 K, 101320 kPa, x2 = 0.4999	–	1662.6 ± 2.6
303.14 K, 101320 kPa, x2 = 0.7007	–	1644.6 ± 2.6
303.15 K, 101 kPa, x2 = 0	741.636 ± 0.64	1259.3 ± 1.6
303.15 K, 101 kPa, x2 = 0.0991	737.456 ± 0.64	–
303.15 K, 101 kPa, x2 = 0.2008	732.789 ± 0.65	–
303.15 K, 101 kPa, x2 = 0.2998	727.833 ± 0.66	–
303.15 K, 101 kPa, x2 = 0.3002	–	1226.7 ± 1.6
303.15 K, 101 kPa, x2 = 0.7002	–	1168.2 ± 1.6
303.15 K, 101 kPa, x2 = 0.7005	702.52 ± 0.69	–
303.15 K, 101 kPa, x2 = 0.7995	694.549 ± 0.7	–
303.15 K, 101 kPa, x2 = 0.8486	690.238 ± 0.7	–
303.15 K, 101 kPa, x2 = 0.8988	685.588 ± 0.71	–
303.15 K, 101 kPa, x2 = 0.9498	680.563 ± 0.72	–
303.15 K, 15200 kPa, x2 = 0	–	1348.5 ± 2.4
303.15 K, 15200 kPa, x2 = 0.3007	–	1317.9 ± 2.4
303.15 K, 15200 kPa, x2 = 0.5003	–	1296.5 ± 2.4
303.15 K, 15200 kPa, x2 = 0.7007	–	1268.1 ± 2.4
303.15 K, 30390 kPa, x2 = 0.3007	–	1396 ± 2.4
303.15 K, 30390 kPa, x2 = 0.7007	–	1351.3 ± 2.4
303.15 K, 30390 kPa, x2 = 0.8496	–	1331.4 ± 2.4
303.15 K, 45590 kPa, x2 = 0.7007	–	1425 ± 2.4
303.15 K, 60790 kPa, x2 = 0.3007	–	1529.4 ± 2.5
303.15 K, 75990 kPa, x2 = 0.3007	–	1588.1 ± 2.5
303.15 K, 75990 kPa, x2 = 0.8496	–	1536.5 ± 2.5
303.15 K, 91180 kPa, x2 = 0.8496	–	1594.2 ± 2.6
303.15 K, 101320 kPa, x2 = 0.8496	–	1630.5 ± 2.6
303.16 K, 101 kPa, x2 = 0.1007	–	1249.4 ± 1.6
303.16 K, 101 kPa, x2 = 0.3996	722.389 ± 0.66	1213.9 ± 1.6
303.16 K, 101 kPa, x2 = 0.5	716.383 ± 0.67	–
303.16 K, 101 kPa, x2 = 0.5002	–	1199.8 ± 1.6
303.16 K, 101 kPa, x2 = 0.6	709.824 ± 0.68	–
303.16 K, 101 kPa, x2 = 0.8	–	1150.3 ± 1.6
303.16 K, 15200 kPa, x2 = 0.8496	–	1245.8 ± 2.4
303.16 K, 45590 kPa, x2 = 0.8496	–	1406.8 ± 2.4
303.16 K, 60790 kPa, x2 = 0.8496	–	1474.8 ± 2.5
